# Data reported in US9005608B2, “Stabilized solubility-enhanced formulations for oral delivery” (Adds Pharmaceuticals LLC, priority 2009, dated 2015).
# Columns and labels:
# [1] = CoQ10 solubility at 37° C. in water and in placebo AQUA Q10 formulation; format: physicochemical
# Method: CoQ10 solubility was measured at 37° C. in water as well as in a placebo AQUA Q10 formulation, i.e., Incromega™ E3322, Capmul™ CMC C-8, and Cremophor™ EL at weight ratio of 40/25/20.
# [2] = CoQ10 solubility/concentration in non-aqueous formulations at elevated temperature; format: physicochemical; conditions: for solubility: organic solvent or mixture
# Source text: While not intending to be bound to any theory, we posit that when a poorly water-soluble agent is incorporated into a porous carrier with narrow pores, it experiences strong geometric restrictions and large interfacial interactions with the porous matrix. […] Thus, absorbing a previously solubilized CoQ10 liquid formulation, for example, into the narrow pore channels of Fujicalin® (calcium hydrogen phosphate) inhibits re-crystallization and aggregation of CoQ10. This enables, to a large extent, even dispersion and distribution of pharmaceutically active forms of CoQ10 in solubilized form. After the Fujicalin® porous particulates dissolve in acidic gastric fluid, the SSS is released and the trapped SEF self-emulsifies in the fluid to form droplets of sufficiently small size, thereby facilitating absorption of CoQ10 cross the epithelial cells. Other porous particulates include silicon dioxide and magnesium aluminum metasilicate. Combinations may also be used.
# CoQ10 in a concentration of >100 mg/ml in a non-aqueous formulation, preferably SEF, at a temperature above 25° C., preferably at or above 48° C. has been achieved.
# The invention formulations solubilize CoQ10 at a concentration of >100 mg/ml at a temperature between 30° C. and 60° C., preferably not above 50° C. In addition, the nutrient/vitamin components readily dissolve in aqueous media, so that >75% of these components are released within an hour.
structure (smiles),measurement,setting,value
"COC1=C(OC)C(=O)C(C/C=C(\C)CC/C=C(\C)CC/C=C(\C)CC/C=C(\C)CC/C=C(\C)CC/C=C(\C)CC/C=C(\C)CC/C=C(\C)CC/C=C(\C)CCC=C(C)C)=C(C)C1=O [CoQ10, Coenzyme Q10]",CoQ10 solubility in AQUA Q10 formulation relative to solubility in water,[1],"over 400,000 times"
same,solubility,"[1]; placebo AQUA Q10 formulation, oil or lipid, placebo Incromega E3322/Capmul CMC C-8/Cremophor EL 40/25/20, read-out: CoQ10 solubility in AQUA Q10 formulation",177 mg/mL
same,solubility,"[1]; water, read-out: CoQ10 solubility in water",0.0004 mg/mL
same,solubility,"[2]; invention formulations, temperature between 30° C. and 60° C., preferably not above 50° C., read-out: CoQ10 concentration solubilized by the invention formulations",> 100 mg/mL
same,solubility,"[2]; non-aqueous formulations, elevated temperature close to its melting temperature (48° C.), read-out: solubility of CoQ10 in non-aqueous formulations",> 100 mg/mL
same,CoQ10 concentration in a non-aqueous formulation,"[2]; preferably SEF, temperature above 25° C., preferably at or above 48° C.",> 100 mg/mL
